Key:
ZIKV NS2B-NS3^pro [1] = target: T1, ZIKV NS2B-NS3^pro (Zika virus, UniProt A0A024B7W1); assay: FRET-based inhibition assay of ZIKV NS2B-NS3pro protease; type: biochemical; settings: for inhibition at 100 µM: pH 7, 100 µM inhibitor
ZIKV NS2B-NS3^pro [2] = target: T1, ZIKV NS2B-NS3^pro; assay: Inhibitor kinetic study; type: biochemical
[3] = 26 μM FRET substrate, 8.7 μg enzyme, 50 mM Tris/HCl pH 7.0, 25 °C, 11 min

T1 sequence (A0A024B7W1 1421-1469): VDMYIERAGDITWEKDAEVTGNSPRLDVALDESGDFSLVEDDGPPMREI
T1 sequence (A0A024B7W1 1503-1688): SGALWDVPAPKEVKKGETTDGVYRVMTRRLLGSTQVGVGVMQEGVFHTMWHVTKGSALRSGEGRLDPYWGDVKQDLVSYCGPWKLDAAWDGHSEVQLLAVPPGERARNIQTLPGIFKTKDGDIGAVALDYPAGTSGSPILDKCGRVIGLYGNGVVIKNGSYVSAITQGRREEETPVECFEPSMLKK

For O=c1c(O)c(-c2cc(O)c(O)c(O)c2)oc2cc(O)cc(O)c12 [Myricetin], the “Inhibition (%)” value (ZIKV NS2B-NS3^pro [1]; 100 µM inhibitor, 26 μM FRET substrate, 8.7 μg enzyme, 50 mM Tris/HCl pH 7.0, 25 °C, 11 min) was “more than 40%”, the Ki (ZIKV NS2B-NS3^pro [2]) was 8.9 ± 1.9 µM and the inhibition type (ZIKV NS2B-NS3^pro [2]; Lineweaver–Burk and Dixon plots, inhibitor 0–50 µM, substrate 10–50 µM) was “mixed type”.

For O=C(O[C@@H]1Cc2c(O)cc(O)cc2O[C@@H]1c1ccc(O)c(O)c1)c1cc(O)c(O)c(O)c1 [Epicatechin gallate], the inhibition at 100 µM (ZIKV NS2B-NS3^pro [1]; [3]) was > 40%.

For O=c1c(O[C@@H]2O[C@H](CO)[C@@H](O)[C@H](O)[C@H]2O)c(-c2ccc(O)cc2)oc2cc(O)cc(O)c12 [Astragalin], the IC50 (ZIKV NS2B-NS3^pro [1]) was 112 ± 5.5 µM and the inhibition at 100 µM (ZIKV NS2B-NS3^pro [1]; [3]) was > 40%.

C[C@@H]1O[C@@H](O[C@H]2[C@H](Oc3cc(O)c4c(c3)O[C@H](c3ccc(O)cc3)CC4=O)O[C@H](CO)[C@@H](O)[C@@H]2O)[C@H](O)[C@H](O)[C@H]1O [Naringin] was tested, and the “inhibitory activity against ZIKV NS2B-NS3^pro (in words)” value (ZIKV NS2B-NS3^pro [1]; 100 µM inhibitor) was “weak inhibitory activities”.

With O=C(O[C@@H]1Cc2c(O)cc(O)cc2O[C@H]1c1cc(O)c(O)c(O)c1)c1cc(O)c(O)c(O)c1 [Gallocatechin gallate] the IC50 (ZIKV NS2B-NS3^pro [1]) was 99 ± 1.8 µM and the inhibition at 100 µM (ZIKV NS2B-NS3^pro [1]; [3]) was > 40%.

With O=c1cc(-c2ccc(O)c(O)c2)oc2cc(O)cc(O)c12 [Luteolin] the IC50 (ZIKV NS2B-NS3^pro [1]) was 53 ± 1.3 µM, the inhibition at 100 µM (ZIKV NS2B-NS3^pro [1]; [3]) was > 40% and the “inhibition activity compared to chrysin” value (ZIKV NS2B-NS3^pro [1]; ratio of inhibition at 100 µM) was 2.8 times.

For C[C@@H]1O[C@@H](OC[C@H]2O[C@@H](Oc3c(-c4ccc(O)c(O)c4)oc4cc(O)cc(O)c4c3=O)[C@H](O)[C@@H](O)[C@@H]2O)[C@H](O)[C@H](O)[C@H]1O [Rutin], the inhibition at 100 µM (ZIKV NS2B-NS3^pro [1]; [3]) was > 40%.
